# Assay results as given in patent publication EP0818464B1, “Methylsulfomycin l, a process for its production and its use” (HOECHST AKTIENGESELLSCHAFT, priority 1996, dated 1998).
# Legend:
# Assay in all cases: MIC by agar dilution method
# Format in all cases: cell-based
# Ent. faecalis 4045H = test system: Ent. faecalis 4045H
# Text: (§1) The minimum inhibitory concentration (MIC) against different test strains, determined by agar dilution method in the known manner, are given in Table 2.
# S. epi. 823 (T^R) = settings: Teicoplanin resistant
# Text: as §1
# S. aureus 3066 = S. aureus 3066 (resistant to methicillin)
# Text: as §1
# [1] = test system: Ent. faecium P-2 (V^R,T^R); settings: Vancomycin resistant, Teicoplanin resistant
# Text: as §1
# S. aureus 20240 = test system: S. aureus 20240
# Text: as §1
# S. epi. 825 (T^S) = settings: Teicoplanin sensitive
# Text: as §1
# Ent. faecium D-65 = test system: Ent. faecium D-65
# Text: as §1
# S. aureus Brussels 4115 = test system: S. aureus Brussels 4115
# Text: as §1
# S. aureus 20424 = test system: S. aureus 20424
# Text: as §1
# S. aureus E-88 = test system: S. aureus E-88
# Text: as §1
# [2] = test system: Ent. faecium R-1 (V^R,T^R); settings: Vancomycin resistant, Teicoplanin resistant
# Text: as §1
# [3] = test system: Staphylococcus aureus 209P
# Text: as §1
# Ent. equinus (V^R,T^R) = settings: Vancomycin resistant, Teicoplanin resistant
# Text: as §1
# S. epi. 8 Schah = test system: S. epi. 8 Schah
# Text: as §1
# S. haemo. 712 (T^R) = settings: Teicoplanin resistant
# Text: as §1
# S. aureus E 712 = test system: S. aureus E 712
# Text: as §1
# Ent. faecalis D-7F = test system: Ent. faecalis D-7F
# Text: as §1
# S. aureus Wein 12 = test system: S. aureus Wein 12
# Text: as §1
# [4] = test system: Ent faecalis durans 4931 H
# Text: as §1
# S. aureus Wein 11 = test system: S. aureus Wein 11
# Text: as §1
# [5] = test system: Ent. faecium R-2 (V^R,T^R); settings: Vancomycin resistant, Teicoplanin resistant
# Text: as §1
# S. aureus Chantot 31153 = test system: S. aureus Chantot 31153
# Text: as §1
# S. aureus Brussels 810 = test system: S. aureus Brussels 810
# Text: as §1
# [6] = test system: Ent. faecium P-1 (V^R,T^R); settings: Vancomycin resistant, Teicoplanin resistant
# Text: as §1
# S. epi 6026 = test system: S. epi 6026
# Text: as §1
# Escherichia coli 2231 = test system: Escherichia coli 2231
# Text: as §1
# S. epi. 5747 IIW = test system: S. epi. 5747 IIW
# Text: as §1
# S. epi. 109 = test system: S. epi. 109
# Text: as §1
# Ent. hirae 55 = test system: Ent. hirae 55
# Text: as §1
# S. aureus E 710 = test system: S. aureus E 710
# Text: as §1
# S. haemo. 712 (T^S) = settings: Teicoplanin sensitive
# Text: as §1
# S. epi. 32965 = test system: S. epi. 32965
# Text: as §1
# [7] = test system: Enterococcus faecalis ATCC 29212
# Text: as §1
substance,measurement,setting,value
methylsulfomycin I,MIC,Ent. faecalis 4045H,0.125 µg/mL
same,MIC,S. epi. 823 (T^R),0.125 µg/mL
same,MIC,S. aureus 3066,0.125 µg/mL
same,MIC,[1],0.125 µg/mL
same,MIC,S. aureus 20240,0.125 µg/mL
same,MIC,S. epi. 825 (T^S),0.125 µg/mL
same,MIC,Ent. faecium D-65,0.125 µg/mL
same,MIC,S. aureus Brussels 4115,0.125 µg/mL
same,MIC,S. aureus 20424,0.125 µg/mL
same,MIC,S. aureus E-88,0.125 µg/mL
same,MIC,[2],0.125 µg/mL
same,MIC,[3],0.06 µg/mL
same,MIC,"Ent. equinus (V^R,T^R)",0.125 µg/mL
same,MIC,S. epi. 8 Schah,0.125 µg/mL
same,MIC,S. haemo. 712 (T^R),0.125 µg/mL
same,MIC,S. aureus E 712,0.125 µg/mL
same,MIC,Ent. faecalis D-7F,0.125 µg/mL
same,MIC,S. aureus Wein 12,0.125 µg/mL
same,MIC,[4],0.125 µg/mL
same,MIC,S. aureus Wein 11,0.125 µg/mL
same,MIC,[5],0.125 µg/mL
same,MIC,S. aureus Chantot 31153,0.125 µg/mL
same,MIC,S. aureus Brussels 810,0.125 µg/mL
same,MIC,[6],0.125 µg/mL
same,MIC,S. epi 6026,0.125 µg/mL
same,MIC,Escherichia coli 2231,> 100 µg/mL
same,MIC,S. epi. 5747 IIW,0.125 µg/mL
same,MIC,S. epi. 109,0.125 µg/mL
same,MIC,Ent. hirae 55,0.125 µg/mL
same,MIC,S. aureus E 710,0.125 µg/mL
same,MIC,S. haemo. 712 (T^S),0.125 µg/mL
same,MIC,S. epi. 32965,0.125 µg/mL
same,MIC,[7],0.125 µg/mL
